The record followed here is patent US20260248774A1, “INHIBITORS OF BACTERIAL TYPE III SECRETION SYSTEM” (MICROBIOTIX, INC., priority 2022, published 2026).

Each structure is given as a SMILES string. ≈ marks a conversion by molar mass, not a printed value. Where two headings read alike, the source gives them in different places.

Series [1] concerns P. aeruginosa T3SS-mediated secretion (exoT-luxCDABE reporter strain MDM852). Description: Luciferase (exoT-lux) transcriptional reporter assay of T3SS-mediated secretion. Type of series: cell-based, Pseudomonas aeruginosa. To be noted: read-out: LUX Sec IC50; Table 1. From the text:
Luciferase Transcriptional Reporter Assay of T3SS-Mediated Secretion with a Luminescent Signal.
A transcriptional fusion of the Photorhabdus luminescens lux operon (luxCDABE) to P. aeruginosa PAO1 T3SS effector gene exoT (PA0044) was constructed and used to build strain MDM852 as described previously (Aiello et al., 2010, Antimicrob Agents Chemother, 54:1988-1999). Induction of T3SS operons by Ca^++ depletion due to EGTA addition results in secretion of the T3SS negative regulator ExsE and the production of high levels of T3SS components including the luxCDABE gene products, which results in luminescence that is easily detected by a microplate reader. Inhibition of T3SS-mediated secretion of the negative regulator ExsE by a small molecule inhibitor causes reduced production of luxCDABE gene products and reduced luminescence. For inhibitor IC50 testing, compounds were added to a 96-well microplate in a concentration dilution series. Reporter strain MDM852 was grown at 37° C. in LBG to OD600 ~0.025-0.05, transferred into the microplate (50 uL/well) containing test compounds and EGTA (5 uL of 0.1 M stock solution), which was covered with a translucent gas-permeable seal (Abgene, Inc., Cat. No. AB-0718). […] Plates were incubated at room temperature for 300 min. Then, luminescence was measured in an Envision Multilabel microplate reader (PerkinElmer). The screening window coefficient, Z′-factor (see Zhang, et al., 1999, J. Biomol. Screen., 4:67-73), defined as the ratio of the positive and negative control separation band to the signal dynamic range of the assay, averaged 0.7 for the assay.
For orientation: Reporter assays use an easily measured gene product as a stand-in for the process of interest.

Series [2] relates to T3SS-mediated translocation of ExoU by P. aeruginosa strain MDM1561 (PA99U) into CHO cells. Description: P. aeruginosa ExoU-dependent CHO cell killing assay for T3SS-mediated translocation. To be noted: read-out: Translocation EC50. The format is cell-based, Pseudomonas aeruginosa. From the text: P. aeruginosa ExoU-Dependent CHO Cell Killing.
For series [3], the system named is P. aeruginosa T3SS-mediated secretion of ExoS-β-lactamase fusion protein. The series can be described thus: Effector-β-lactamase (ExoS-βLA) reporter assay of T3SS-mediated secretion. The format is cell-based, Pseudomonas aeruginosa. To be noted: read-out: ExoS-BLA IC50; Table 1. The source says: Effector-β-Lactamase (βLA) Reporter Assay of T3SS-Mediated Secretion with an Absorbency Signal.
A gene encoding the exoS promoter/regulatory region and an ExoS-β-lactamase (βLA) fusion protein (comprised of the full length P. aeruginosa T3SS effector ExoS fused in reading frame to the TEM-1 β-lactamase gene lacking secretion signal codons) was constructed by splicing by overlap extension PCR (SOE-PCR) (Choi and Schweizer, 2005, BMC Microbiol., 5:30), sequence confirmed, cloned into miniCTX and introduced into P. aeruginosa strain PAO1 to generate strains MDM1746 and MDM1838 as previously described for strain MDM1710 (Bowlin et al., 2014, Antimicrob Agents Chemother., 58:2211-2220). Secretion of ExoS-β-lactamase fusion protein following EGTA addition to induce the T3SS operons was detected by measuring the hydrolysis of the chromogenic β-lactamase substrate nitrocefin in clear 96-well microplates in a modification of a previously described assay (Lee, et al., 2007, Infect. Immun., 75:1089-98). Cells of strain MDM1746, or negative control MDM1838 (which fails to carry out T3SS secretion due to ΔpscF), were sub-cultured in the morning from overnight growths in LBG into 0.1 ml of LBGE with or without test compounds and grown for 150 min. Nitrocefin (100 μg/mL final) was added, and A490 measurements taken every minute for 15 min in a Victor^3V 1420 Multilabel HTS Counter (PerkinElmer). Slopes were calculated as a relative measure of the quantity of the effector-βLA fusion protein secreted and were absolutely dependent on induction with EGTA, and the presence of a functional pscF gene in the P. aeruginosa cells. Typical signal: background ratios were 6-10.

The nature of series [4]: Kinetic aqueous solubility (nephelometric assay). Particulars: Table 1. Type of series: physicochemical. The source says: Solubility. The maximum aqueous solubility of analogs will be initially determined by nephelometry using a published method (44).
Series [5] concerns HeLa cells. Description: Mammalian cytotoxicity (CC50), MTS conversion. Type of series: cell-based, human. Particulars: assessment in text on Table 1. Here is the method: (§1) Determination of Mammalian Cytotoxicity.
(§2) Following incubation for 3 days at 37° C. in VP-SFM, cell viability was measured with the vital tetrazolium salt stain 3-(4,5-dimethylthiazol-2-yl)-2,5 diphenyltetrazolium bromide according to the manufacturer's instructions (Promega, Madison, Wisconsin). Values were determined in triplicate using dilutions of inhibitory compound from 100 μM to 0.2 μM.

Series [6] can be described thus: Mammalian cytotoxicity (CC50), MTS conversion. The format is cell-based, human. Particulars: human, HeLa cells, Table 1; HeLa; read-out: Cytotox-HeLa CC50. Here is the method: as §1, §2
Series [7] is described as follows: Single dose pharmacokinetic (PK) determination in mice. Also noted: species or system CD-1 mice. Particulars: in vivo.
In series [8] the test system is T3SS translocation, clinical isolates of Pseudomonas aeruginosa.

As usually defined, the IC50 is the concentration needed to halve the response being measured. For orientation: EC50 means the concentration that produces a half-maximal response. What is called CC50 is the concentration giving 50% cytotoxicity. For the compound `CC[C@@H](Oc1ncc(Cl)cc1Cl)C(=O)NCc1ccc2cc(CN(C)C)[nH]c2c1` [MBX-2867], the values for the IC50 in series [1] and in series [3] were 1.6 µM and 1300 nM, respectively. Moreover, in series [2] (Table 1), the EC50 was 5.8 µM. In series [4], this compound yielded a Sol of 3000 µM. Further, the “cytotoxicity” value in series [5] is recorded as “exhibit cytotoxicity”. The CC50 at 3 days in series [6] turned out to be 30 µM.

Take `CC(Oc1ccc(Cl)cc1Cl)C(=O)NCc1cc2ccccc2[nH]1` (stereo not drawn) [MBX-2624]: the results for the IC50 in series [1] and in series [3] were 8.7 µM and 9000 nM, respectively. Further, the 50% effective concentration (EC50) in series [2] (Table 1) worked out at 17 µM. In series [4], this compound came in with a Sol of 100 µM. In addition, the “cytotoxicity” value in series [5] is listed as “exhibit cytotoxicity”. Also, in series [6], the CC50 at 3 days was determined as 9 µM.

For `CC[C@@H](Oc1ncc(Cl)cc1Cl)C(=O)NCc1ccc2cc(C(=O)N3CCOCC3)[nH]c2c1` [MBX-3458], the “half-life in mice” value in series [7] is listed as “short half-lives in mice”. The half-inhibitory concentration (IC50) in series [1] came to 3.7 µM; in series [3], 900 nM. In addition, the EC50 in series [2] (Table 1) turned out to be 5.2 µM. In series [4], this compound displayed a Sol of 25 µM. Besides, in series [6], the cytotoxic concentration (CC50) at 3 days worked out at 100 µM.

With `CC[C@@H](Oc1ncc(Cl)cc1Cl)C(=O)NCc1cccc(NC(=O)NC2CC3(C2)CN(CCC(=O)O)C3)c1` [MBX-5452A], the EC50 turned out to be 0.74 µg/mL (≈ 1.31 µM) in series [8], 2.7 µM in series [2] (Table 1) and 2.7 µM in series [2] (Table 6).
